Read-outs that look alike come from different tables or passages of the source.
Tested on: highly pathogenic AIV H5N1
Format: in vivo, BALB/C mice
Settings: for body weight change after challenge: challenged groups treated with BARODON or TamiFlu, 2 weeks

CCOC(=O)C1=C[C@@H](OC(CC)CC)[C@H](NC(C)=O)[C@@H](N)C1 [TamiFlu]
survival rate (TamiFlu 10 mg/kg/day orally for 5 days after challenge, by D12): 75%
body weight change after challenge: none of the groups treated with TamiFlu and BARODON exhibited weight gain after challenge
body weight change after challenge (listed as TamiFlue): no difference in weight change between groups

From patent publication US9687545B2, “Nonspecific immunostimulator composition, method of preparation the same, and its use” (BARODON-S.F.CORP., priority 2014, dated 2017)
